Measured values taken from patent US20090285893A1, “TREATMENT OF HEART FAILURE IN WOMEN” (The Procter & Gamble Company, priority 2008, published 2009).

Key:
Format in all cases: in vivo, human
[1] = tested on: post-menopausal women with heart failure; assay: six minute walking test (6MWT), exercise tolerance; conditions: for 6MWT distance walked: 300 mcg/day transdermal patch
Procedure: (§1) Thirty-two (32) patients enrolled in the trial. […] Testosterone was administered to the patients as Intrinsa, which is available in Europe.
(§2) The clinical trial design involved: (A) evaluation of inclusion/exclusion criteria and study agreement; (B) visit (blood pressure, heart rate and NYHA classification); (C) six minute walking test, endothelial function, ergospirometry (when possible), muscle strength (isometric and isokinetic) and blood samples; and then (D) randomization to testosterone or placebo. The following follow-ups were conducted: six weeks (B); twelve weeks (B+C); 18 weeks (B); and 24 weeks (B+C).
In the 6MWT, each patient started by standing at a known beginning location point. Each patient then walked as much as possible within a 6-minute timeframe. At the end of the 6-minute timeframe, the ending location of each patient was identified. The distance each patient walked was calculated by measuring (in meters) the distance between the beginning and end points for each patient.

[2] = tested on: post-menopausal women with heart failure; assay: maximal oxygen consumption (MVO2) by ergospirometry
Procedure: Thirty-two (32) patients enrolled in the trial.
The following follow-ups were conducted: six weeks (B); twelve weeks (B+C); 18 weeks (B); and 24 weeks (B+C).
Maximal oxygen consumption (“MVO2;” also “VO2 max”) is the maximum volume of oxygen that the body can consume during intense, whole-body exercise, while breathing air at sea level. This volume is expressed as a rate, which is in ml/kg/min. As oxygen consumption is linearly related to energy expenditure, the measurement of oxygen consumption is an indirect measurement of an individual's maximal capacity to do work aerobically.

[3] = tested on: post-menopausal women with heart failure; assay: muscle isometric strength, maximal voluntary contraction (MVC)
Procedure: as §1, §2
Isometric strength was the highest force developed by patients in three, 5-second maximal voluntary contractions (“MVC”) separated by 1 minute of rest. The knee angle was fixed at 80° (full extension considered 0°). Results are reported at Tables 9-10 and FIGS. 8-10.

[4] = tested on: post-menopausal women with heart failure; assay: muscle isokinetic strength, peak torque
Procedure: as §1, §2
Isokinetic strength was assessed by evaluating the highest peak torque achieved in a five maximal repetition test of concentric knee extension/flexion performed at 90 degree/sec. The range of motion was 50°. Results are reported at Tables 11-12 and FIGS. 11-13.

[5] = tested on: post-menopausal women with heart failure; assay: NYHA classification improvement
Procedure: as §1, §2
NYHA Classification was determined for each individual at three months and at six months of treatment.

[6] = tested on: post-menopausal women with heart failure; assay: high-density lipoprotein (HDL) measurement
Procedure: as §1, §2
High-density lipoprotein (“HDL”) was measured.

[7] = tested on: post-menopausal women with heart failure; assay: drop-outs and adverse events during the clinical study; conditions: testosterone group of 20 patients
Procedure: as §1
During the clinical study, two patients dropped out of the testosterone group, and one patient dropped out of the placebo group. […] The patient who dropped out of the placebo group was a no-show at the 6-week meeting and was reported to have stopped the treatment. Of the testosterone group, six patients referred mild skin irritation at the patch site and continued therapy. Of the placebo group, two patients referred mild skin irritation at the patch site and continued therapy. […] These two patients continued the testosterone treatment. Two patients in the placebo group had worsening heart failure that required hospital admission (one patient had one episode of worsening heart failure; the other patient had two episodes of worsening heart failure). These two patients continued with the patch.

SMILES: C[C@]12CC[C@H]3[C@@H](CCC4=CC(=O)CC[C@@]43C)[C@@H]1CC[C@@H]2O [Testosterone, testosterone]
- 6MWT percent change from baseline ([1]; 3 months): 35.7% change
- 6MWT change in distance walked ([1]; 3 months vs baseline): 93 Δ m
- 6MWT distance walked ([1]; 3 months): 353 m
- 6MWT percent change from baseline ([1]; 6 months): 39.2% change
- 6MWT change in distance walked ([1]; 6 months vs baseline): 102 Δ m
- 6MWT distance walked ([1]; 6 months): 362 m
- 6MWT distance walked ([1]; baseline, testosterone group): 260 m
- MVO2 percent change from baseline ([2]; 3 months): 21% change
- MVO2 percent change from baseline ([2]; 6 months): 28% change
- MVO2 percent change from baseline ([2]; 6 months, listed as testosterone): over 25 % change
- maximal oxygen consumption peak (MVO2) ([2]; baseline, testosterone group): 10.54 mL/kg/min
- MVC percent change from baseline ([3]; 3 months): 37.8% change
- isometric strength, maximal voluntary contraction (MVC) ([3]; 3 months): 89.4 N
- MVC percent change from baseline ([3]; 6 months): 47.6% change
- isometric strength, maximal voluntary contraction (MVC) ([3]; 6 months): 95.7 N
- isometric strength, maximal voluntary contraction (MVC) ([3]; baseline, testosterone group): 64.85 N
- isokinetic strength, peak torque ([4]; 3 months): 58.85 N/m
- peak torque percent change from baseline ([4]; 3 months): 42.32% change
- isokinetic strength, peak torque ([4]; 6 months): 63.82 N/m
- peak torque percent change from baseline ([4]; 6 months): 54.34% change
- isokinetic strength, peak torque ([4]; baseline, testosterone group): 41.35 N/m
- Percent of patients with improvement of NYHA Class and/or improvement of >15% 6 MWT (% Response) ([5]; 6 months): 80%
- Percent change in NYHA Class of patients: NYHA 0 ([5]; during 6 months of treatment): 50%
- Percent change in NYHA Class of patients: NYHA + 1 ([5]; during 6 months of treatment): 11%
- Percent change in NYHA Class of patients: NYHA − 1 ([5]; during 6 months of treatment): 38.8%
- HDL Percent Changes ([6]; 3 months): 19%
- HDL level ([6]; 3 months): 43.24 mg/dL
- HDL Percent Changes ([6]; 6 months): 25%
- HDL level ([6]; 6 months): 43.15 mg/dL
- HDL level ([6]; baseline, testosterone group): 36.9 mg/dL
- patients who dropped out [7]: two
- patients with generalized prurigo (without lesions on the skin), discontinued treatment after 3 weeks [7]: one
- patients with mild skin irritation at the patch site, continued therapy [7]: six
- patients with one episode of worsening of heart failure requiring hospital admission ([7]; during the follow-up): Two
